Values of other authors in patent US20220370316A1, “BIOCIDE PRODUCT OF BROAD, CONTINUOUS AND PROLONGUED EFFECT BASED ON ETHANOL, BENZALKONIUM CHLORIDE AND COPPER NANOPARTICLES” (priority 2021, published 2022).

What was measured:
[1] = after topical application
cutaneous bacteria = details: ethanol at 70% concentration, two minutes, skin kept in contact with the alcohol without drying

Q: With “Alkyl-benzyl-dimethyl ammonium chloride [Benzalkonium chloride]” as the compound, how does the “time range of effectivity” value [1] read?
A: The value was at most 12 h.

Q: Which cutaneous bacteria destroyed (cutaneous bacteria) does the source give for `CCO` [Ethanol, ethanol] here?
A: Its cutaneous bacteria destroyed is “approximately 90%”.
